{"source": "PubChem BioAssay AID1963966", "about": "(Molecular Pharmacology Branch, DTP, NCI, 2024)", "system": "935938-334-R-J1-PDC spheroids with HUVEC/MSC, viability", "experiment": "Anticancer human tumor 935938-334-R-J1-PDC patient-derived small intestine adenocarcinoma cell line growth inhibition [PI3K]", "details": "for IC50: curve of first compound; for viability, T/C: stronger effect = lower value", "source_text": "Combinatorial screen of targeted agents with the PI3K inhibitors inavolisib, alpelisib, duvelisib, and copanlisib in multi-cell type tumor spheroids\nA high-throughput screen of multi-cell type tumor spheroids was designed to identify active combinations of targeted small molecules and PI3K pathway inhibitors. Complex spheroids include a stromal component modeled by human endothelial cells (HUVEC) and fibroblasts modeled by human mesenchymal stem cells (MSCs). The concentration ranges selected for each drug and investigational agent were based upon clinically achievable concentrations if the clinical Cmax of the agent was known.\nCompounds. The drugs and investigational agents: inavolisib (NSC800729), alpelisib (NSC765974), duvelisib (NSC772469), copanlisib (NSC816437), ipatasertib (NSC767898), afuresertib (NSC778305), talazoparib (NSC767125), sapanisertib (NSC764658), selumetinib (NSC741078), tovorafenib (DAY101, NSC766906), vemurafenib (NSC761431), ravoxertinib (NSC781343), sotorasib (NSC818433), MRTX1133 (NSC 836407), abemaciclib (NSC 768073), palbociclib (NSC758247), venetoclax (NSC 766270), SY5609 (NSC837396), enzalutamide (NSC755605), and darolutamide (NSC825331), were obtained from the National Cancer Institute (NCI) Developmental Therapeutics Program Chemical Repository. The FDA-approved anticancer drug set is available from the NCI Developmental Therapeutics Program. […] The stock solutions were prepared in dimethyl sulfoxide (DMSO, Sigma-Aldrich, St. Louis, MO, cat. D2650) at 800-fold the tested concentration and stored at -70 degrees C prior to their use. All drugs and investigational agents were tested over a range starting from a high concentration at or near the clinical Cmax and decreasing in half-log increments. If the clinical Cmax for an agent had not been determined, the highest concentration tested was 10 microM.\nCell Culture. All cells were maintained in an incubator at 37 degrees C and 5% CO2 with 95% humidity. The PDC lines were cultured according to standard operating procedures established by the NCI PDMR (https://pdmr.cancer.gov/sops/default.htm). All PDCs were thawed and cultured in Matrigel-coated flasks prepared with a working solution of 1X Ham's F-12 nutrient mix, without supplementation (Invitrogen, Waltham, MA, cat. 11765054), 100 U/mL penicillin-streptomycin (Invitrogen, cat. 15140122), and 2.5% Matrigel (Corning Inc., Corning, NY, cat. 354248) for the first three passages. The 354836-022-R-J1-PDC, 475296-252-R-J1-PDC, and 997726-040-R-J2-PDC lines were cultured in 6A media, which includes advanced DMEM/F-12 (Thermo Fisher Scientific, cat. 12634028), 10 mM HEPES (Thermo Fisher Scientific, cat. 15630080), 1X GlutaMAX supplement (Thermo Fisher Scientific, cat. 35050061), 0.1 mg/mL primocin (InvivoGen, San Diego, CA, cat. ant-pm-2), 10% defined fetal bovine serum, heat inactivated (HyClone Laboratories Inc., Logan, UT, cat. SH30070.03HI), 50% L-WRN conditioned media (ATCC, cat. CRL-3276), 1.25 mM N-Acetyl-L-cysteine (Sigma-Aldrich, cat. A9165), 10 mM nicotinamide (Sigma-Aldrich, cat. N0636), 1X B-27 supplement (Thermo Fisher Scientific, cat. 17504044), 1X N-2 supplement (Thermo Fisher Scientific, cat. 17502048), and 10 microM Y-27632 dihydrochloride (Tocris Bioscience, Bristol, United Kingdom, cat. 1254). The 624824-186-R-J2-PDC line was cultured in 6C/Colon 1B media, which includes all 6A media components plus 50 ng/mL human EGF recombinant protein (Thermo Fisher Scientific, cat. PHG0311). […]", "data": [{"compound": "CC1(C)CCC(CN2CCN(c3ccc(C(=O)NS(=O)(=O)c4ccc(NCC5CCOCC5)c([N+](=O)[O-])c4)c(Oc4cnc5[nH]ccc5c4)c3)CC2)=C(c2ccc(Cl)cc2)C1", "note": "+ CC(Nc1ccc2c(c1)OCCn1cc(N3C(=O)OCC3C(F)F)nc1-2)C(N)=O;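 further: compound exposure lasted seven days before viability was read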;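 on viability, T/C: percent of vehicle DMSO treated spheroid viability so 100% = untreated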", "values": [{"measurement": "IC50", "setting": "second compound 0.00316 µM", "value": 6.27, "unit": "µM"}, {"measurement": "IC50", "setting": "second compound 0.01 µM", "value": 6, "unit": "µM"}, {"measurement": "IC50", "setting": "second compound 0.0316 µM", "value": 5.41, "unit": "µM"}, {"measurement": "IC50", "setting": "second compound 0.1 µM", "value": 6, "unit": "µM"}, {"measurement": "IC50", "setting": "second compound 0.316 µM", "value": 5.04, "unit": "µM"}, {"measurement": "IC50", "setting": "second compound 1 µM", "value": 3.21, "unit": "µM"}, {"measurement": "viability, T/C", "setting": "second compound 0.00316 µM, first compound 0.0316 µM", "value": 85.9, "unit": "%"}, {"measurement": "viability, T/C", "setting": "second compound 0.00316 µM, first compound 0.1 µM", "value": 78.6, "unit": "%"}, {"measurement": "viability, T/C", "setting": "second compound 0.00316 µM, first compound 0.316 µM", "value": 106, "unit": "%"}, {"measurement": "viability, T/C", "setting": "second compound 0.00316 µM, first compound 1 µM", "value": 115, "unit": "%"}, {"measurement": "viability, T/C", "setting": "second compound 0.00316 µM, first compound 3.16 µM", "value": 90.3, "unit": "%"}, {"measurement": "viability, T/C", "setting": "second compound 0.00316 µM, first compound 10 µM", "value": 22.5, "unit": "%"}, {"measurement": "viability, T/C", "setting": "second compound 0.01 µM, first compound 0.0316 µM", "value": 88.7, "unit": "%"}, {"measurement": "viability, T/C", "setting": "second compound 0.01 µM, first compound 0.1 µM", "value": 95.1, "unit": "%"}, {"measurement": "viability, T/C", "setting": "second compound 0.01 µM, first compound 0.316 µM", "value": 120, "unit": "%"}, {"measurement": "viability, T/C", "setting": "second compound 0.01 µM, first compound 1 µM", "value": 83.1, "unit": "%"}, {"measurement": "viability, T/C", "setting": "second compound 0.01 µM, first compound 3.16 µM", "value": 80.8, "unit": "%"}, {"measurement": "viability, T/C", "setting": "second compound 0.01 µM, first compound 10 µM", "value": 26.8, "unit": "%"}, {"measurement": "viability, T/C", "setting": "second compound 0.0316 µM, first compound 0.0316 µM", "value": 90.5, "unit": "%"}, {"measurement": "viability, T/C", "setting": "second compound 0.0316 µM, first compound 0.1 µM", "value": 78.8, "unit": "%"}, {"measurement": "viability, T/C", "setting": "second compound 0.0316 µM, first compound 0.316 µM", "value": 76.2, "unit": "%"}, {"measurement": "viability, T/C", "setting": "second compound 0.0316 µM, first compound 1 µM", "value": 103, "unit": "%"}, {"measurement": "viability, T/C", "setting": "second compound 0.0316 µM, first compound 3.16 µM", "value": 74.4, "unit": "%"}, {"measurement": "viability, T/C", "setting": "second compound 0.0316 µM, first compound 10 µM", "value": 22.1, "unit": "%"}, {"measurement": "viability, T/C", "setting": "second compound 0.1 µM, first compound 0.0316 µM", "value": 88.5, "unit": "%"}, {"measurement": "viability, T/C", "setting": "second compound 0.1 µM, first compound 0.1 µM", "value": 90.9, "unit": "%"}, {"measurement": "viability, T/C", "setting": "second compound 0.1 µM, first compound 0.316 µM", "value": 84.5, "unit": "%"}, {"measurement": "viability, T/C", "setting": "second compound 0.1 µM, first compound 1 µM", "value": 82, "unit": "%"}, {"measurement": "viability, T/C", "setting": "second compound 0.1 µM, first compound 3.16 µM", "value": 100, "unit": "%"}, {"measurement": "viability, T/C", "setting": "second compound 0.1 µM, first compound 10 µM", "value": 18.6, "unit": "%"}, {"measurement": "viability, T/C", "setting": "second compound 0.316 µM, first compound 0.0316 µM", "value": 69.6, "unit": "%"}, {"measurement": "viability, T/C", "setting": "second compound 0.316 µM, first compound 0.1 µM", "value": 71.3, "unit": "%"}, {"measurement": "viability, T/C", "setting": "second compound 0.316 µM, first compound 0.316 µM", "value": 76.3, "unit": "%"}, {"measurement": "viability, T/C", "setting": "second compound 0.316 µM, first compound 1 µM", "value": 68.8, "unit": "%"}, {"measurement": "viability, T/C", "setting": "second compound 0.316 µM, first compound 3.16 µM", "value": 72.7, "unit": "%"}, {"measurement": "viability, T/C", "setting": "second compound 0.316 µM, first compound 10 µM", "value": 18.7, "unit": "%"}, {"measurement": "viability, T/C", "setting": "second compound 1 µM, first compound 0.0316 µM", "value": 62.6, "unit": "%"}, {"measurement": "viability, T/C", "setting": "second compound 1 µM, first compound 0.1 µM", "value": 59.7, "unit": "%"}, {"measurement": "viability, T/C", "setting": "second compound 1 µM, first compound 0.316 µM", "value": 57, "unit": "%"}, {"measurement": "viability, T/C", "setting": "second compound 1 µM, first compound 1 µM", "value": 65.2, "unit": "%"}, {"measurement": "viability, T/C", "setting": "second compound 1 µM, first compound 3.16 µM", "value": 47.6, "unit": "%"}, {"measurement": "viability, T/C", "setting": "second compound 1 µM, first compound 10 µM", "value": 20.3, "unit": "%"}]}]}
